{
  "source": "paper PMC7772889",
  "about": "“Integrating biokinetics and in vitro studies to evaluate developmental neurotoxicity induced by chlorpyrifos in human iPSC-derived neural stem cells undergoing differentiation towards neuronal and glial cells” (Reproductive Toxicology (Elmsford, N.y.), 2020)",
  "tested_on": "hiPSC-derived NSCs undergoing differentiation towards neurons and astrocytes",
  "test": "In vitro biokinetics of CPF and metabolites in medium, cells and plastic (HPLC-UV)",
  "description": "The nominal concentration causing 5 % decrease of viability (IC5) was previously identified, extrapolating a dose response curves obtained with six CPF nominal concentrations (0.49, 1.95, 7.81, 31.25, 125, and 500 μM) vs solvent control (0.1 % DMSO) after 14-day treatment by means of resazurin test (CellTiter-Blue® Reagent).\nCPF stock solutions were prepared in DMSO and stored in glass at −20 °C until the beginning of each experiment. Freshly prepared treatment solutions were obtained after the dilution of stock solutions in a ratio of […] in serum-free culture medium, keeping DMSO concentration at 0.1 %. Aliquots of the stock and daily treatment solutions (considered as the starting solutions) were stored at −80 °C until HPLC analysis.\nCells (about 21,000 cells/cm^2), seeded on 6 well PDL- and reduced growth factor Matrigel coated plates, were treated during the differentiation process, starting from day 7 of differentiation up to day 21, with treatment/medium refreshed twice a week (Fig. 2). Exposure to CPF of cells or pre-coated wells (without cells) was initiated by adding 2 mL per well of the corresponding treatment solutions or the vehicle (control wells). Four biological replicates were carried out.\nA first set of experiments was used to fine tune the experimental conditions, including time points and exposure conditions, taking into account possible metabolism, bioaccumulation and/or physical sequestration processes. All the fractions (i.e., medium, cells, plastic and matrix-bound fractions) were collected, at the first and last day of treatment, at different time points (i.e., 1, 3, 6, 24 h) selected on the basis of the intrinsic features of the compound and the cellular model. At each time point, the medium was transferred into amber glass vials and stored at −80 °C until HPLC analysis. Cells were washed twice with PBS (2 mL/well); to avoid dehydration of the cells, an aliquot of PBS was kept in each well. PBS was then removed, cells were scraped from the wells in 250 μL MeOH, additional 100 μL MeOH were added for washing and all the content was transferred into amber glass vials. The same procedure was applied also to the wells used for measuring matrix-bound material (without cells). Cells were then sonicated until they were fully homogenized (about 15 min). All fractions, including DMSO from control wells and MeOH used to measure possible plastic binding, were stored at −80 °C until HPLC analysis. Four biological replicates were carried out.\nAll samples from kinetic experiments were analysed using high-performance liquid chromatography (HPLC), as previously described, to quantify CPF and its metabolites. Prior to analysis, one volume of the collected medium samples was mixed with three volumes of MeOH. All the mixtures, including cell and matrix-bound samples, were vortexed for 30 s and then centrifuged (Eppendorf 5417R; 4 °C, 2500 rpm) for 10 min. Preliminary assays were conducted to evaluate CPF and its metabolite recovery after the solvent extraction procedure from each type of sample. […] Plastic-bound fraction was injected as such.\nThe HPLC system included a PerkinElmer Series 200 analytical pump, a Restek™ Pinnacle ODS Amine C18 column, a PerkinElmer LC 235 Diode Array Detector and the PerkinElmer Totalchrom™ 3.1.2 software for data acquisition and evaluation. For analysing CPF, CPFO and TCP, a gradient elution was applied at a flow rate of 1.0 mL/min, starting at 80:20 % methanol /buffer (Tris /HCl 50 mM EDTA 1 mM pH 7.4) and reaching after 4 min a percentage of 70:30 (v/v), respectively, maintained for 16 min. Then, the gradient returned to the initial concentration before the next sample was injected.",
  "data": [
    {"smiles": "CCOP(=S)(OCC)Oc1nc(Cl)c(Cl)cc1Cl", "note": "[CPF, Chlorpyrifos]", "values": [
      {"measurement": "Intracellular levels of CPF", "setting": "first day of treatment, 1 h until 24 h, 21 μM nominal", "value": "2.5–4.7 nmol/well"},
      {"measurement": "CPF in the medium as % of the initial CPF amount", "setting": "first day of treatment, 24 h", "value": "around 41%"},
      {"measurement": "CPF in the medium", "setting": "first day of treatment, 24 h, 21 μM nominal", "value": "18.0 ± 6.9", "unit": "nmol/well"},
      {"measurement": "Mass balance (% of the applied CPF amount)", "setting": "first day of treatment, first three time points (1, 3 and 6 h)", "value": "around 95%"},
      {"measurement": "Actual concentration in the medium at the beginning of the experiment (treatment solution)", "setting": "nominal concentration 21 μM (IC5)", "value": "24.5 ± 5.6", "unit": "µM"},
      {"measurement": "Amount of CPF in the cell compartment, last day compared to first day of treatment", "setting": "p < 0.01", "value": "doubled"},
      {"measurement": "Mass balance", "setting": "repeated exposure, within the first 6 h", "value": "110 to 120", "unit": "%"}
    ]}
  ]
}
